Experimental data published in patent US11629201B2, “PSMA-binding agents and uses thereof” (ITM Isotope Technologies Munich SE, priority 2017, dated 2023).

Tested on: PC-3 PIP/flu tumor-bearing mice
Assay: Biodistribution studies in PC-3 PIP/flu tumor-bearing mice
Conditions: for Tumor-to-blood / Tumor-to-kidney / Tumor-to-liver: PC-3 PIP tumor

Structure (SMILES): O=C(O)CCC(NC(=O)NC(CCCCNC(=O)C(Cc1ccc2ccccc2c1)NC(=O)C1CCC(CNC(=O)C(CCCCNC(=O)CN2CCN(CC(=O)O)CCN(CC(=O)O)CCN(CC(=O)O)CC2)NC(=O)CCCCCCC(=O)NC(CCCCNC(=O)CCCc2ccc(I)cc2)C(=O)O)CC1)C(=O)O)C(=O)O (stereo not shown) [^177Lu-PSMA-ALB-04, metal not drawn]
- Tumor-to-blood (1 h p.i.): 0.20 ± 0.02
- Tumor-to-kidney (1 h p.i.): 0.54 ± 0.09
- Tumor-to-liver (1 h p.i.): 0.33 ± 0.06
- Blood (24 h p.i.): 55.3 ± 3.10 % IA/g
- Bone (24 h p.i.): 8.88 ± 0.19 % IA/g
- Heart (24 h p.i.): 22.1 ± 3.70 % IA/g
- Intestines (24 h p.i.): 8.13 ± 1.31 % IA/g
- Kidneys (24 h p.i.): 41.5 ± 1.44 % IA/g
- Liver (24 h p.i.): 17.6 ± 2.04 % IA/g
- Lung (24 h p.i.): 40.1 ± 7.77 % IA/g
- Muscle (24 h p.i.): 5.82 ± 1.62 % IA/g
- PC-3 PIP Tumor (24 h p.i.): 82.8 ± 6.84 % IA/g
- PC-3 flu Tumor (24 h p.i.): 14.0 ± 0.60 % IA/g
- Salivary glands (24 h p.i.): 12.5 ± 0.42 % IA/g
- Spleen (24 h p.i.): 13.6 ± 1.90 % IA/g
- Stomach (24 h p.i.): 6.18 ± 0.95 % IA/g
- Tumor-to-blood (24 h p.i.): 1.50 ± 0.11
- Tumor-to-kidney (24 h p.i.): 2.00 ± 0.11
- Tumor-to-liver (24 h p.i.): 4.76 ± 0.67
- Blood (48 h p.i.): 38.2 ± 1.48 % IA/g
- Bone (48 h p.i.): 6.80 ± 0.67 % IA/g
- Heart (48 h p.i.): 13.6 ± 0.36 % IA/g
- Intestines (48 h p.i.): 7.27 ± 0.82 % IA/g
- Kidneys (48 h p.i.): 38.2 ± 4.10 % IA/g
- Liver (48 h p.i.): 13.1 ± 0.67 % IA/g
- Lung (48 h p.i.): 24.6 ± 2.02 % IA/g
- Muscle (48 h p.i.): 4.62 ± 0.38 % IA/g
- PC-3 PIP Tumor (48 h p.i.): 93.2 ± 12.4 % IA/g
- PC-3 flu Tumor (48 h p.i.): 12.6 ± 0.82 % IA/g
- Salivary glands (48 h p.i.): 10.6 ± 0.42 % IA/g
- Spleen (48 h p.i.): 14.0 ± 1.70 % IA/g
- Stomach (48 h p.i.): 5.04 ± 0.35 % IA/g
- Tumor-to-blood (48 h p.i.): 2.45 ± 0.41
- Tumor-to-kidney (48 h p.i.): 2.47 ± 0.50
- Tumor-to-liver (48 h p.i.): 7.16 ± 1.16
- Blood (96 h p.i.): 11.65 ± 1.22 % IA/g
- Bone (96 h p.i.): 2.54 ± 0.31 % IA/g
- Heart (96 h p.i.): 4.81 ± 0.29 % IA/g
- Intestines (96 h p.i.): 2.36 ± 0.17 % IA/g
- Kidneys (96 h p.i.): 15.3 ± 1.49 % IA/g
- Liver (96 h p.i.): 4.67 ± 0.82 % IA/g
- Lung (96 h p.i.): 9.96 ± 1.44 % IA/g
- Muscle (96 h p.i.): 1.56 ± 0.56 % IA/g
- PC-3 PIP Tumor (96 h p.i.): 61.4 ± 7.68 % IA/g
- PC-3 flu Tumor (96 h p.i.): 5.63 ± 0.37 % IA/g
- Salivary glands (96 h p.i.): 4.08 ± 0.44 % IA/g
- Spleen (96 h p.i.): 6.76 ± 0.59 % IA/g
- Stomach (96 h p.i.): 1.74 ± 0.11 % IA/g
- Tumor-to-blood (96 h p.i.): 5.29 ± 0.74
- Tumor-to-kidney (96 h p.i.): 4.03 ± 0.56
- Tumor-to-liver (96 h p.i.): 13.4 ± 2.88
- Blood (192 h p.i.): 3.75 ± 1.49 % IA/g
- Bone (192 h p.i.): 1.17 ± 0.61 % IA/g
- Heart (192 h p.i.): 1.73 ± 0.70 % IA/g
- Intestines (192 h p.i.): 0.67 ± 0.15 % IA/g
- Kidneys (192 h p.i.): 8.82 ± 3.83 % IA/g
- Liver (192 h p.i.): 2.45 ± 0.81 % IA/g
- Lung (192 h p.i.): 4.10 ± 1.77 % IA/g
- Muscle (192 h p.i.): 0.71 ± 0.54 % IA/g
- PC-3 PIP Tumor (192 h p.i.): 57.6 ± 17.3 % IA/g
- PC-3 flu Tumor (192 h p.i.): 3.31 ± 1.43 % IA/g
- Salivary glands (192 h p.i.): 1.96 ± 0.73 % IA/g
- Spleen (192 h p.i.): 5.22 ± 3.17 % IA/g
- Stomach (192 h p.i.): 0.56 ± 0.19 % IA/g
- Tumor-to-blood (192 h p.i.): 15.8 ± 3.55
- Tumor-to-kidney (192 h p.i.): 6.91 ± 2.24
- Tumor-to-liver (192 h p.i.): 23.9 ± 5.12
